Assay results published in PMC6805867, “Amphiphilic Triazine Polymer Derivatives as Antibacterial And Anti-atopic Agents in Mice Model” (Scientific Reports, 2019).

How the values were obtained:
[1] = tested on: serum total IgE and IgG2a; test: DNCB-induced AD model, serum immunoglobulins by ELISA; assay type: in vivo, BALB/c mice; details: versus AD-induced mice
Description: As described in our previous article, the 7-week-old female BALB/c mice were divided into seven groups (n = 8 per group): Control (Con) group, TZP3 200 μg/mL (TZP3) group, and TZP5 200 μg/mL (TZP5) group, DNCB-sensitized only (AD) group, DNCB-sensitized + TZP3 200 μg/mL (AD + TZP3) group, DNCB-sensitized + TZP5 200 μg/mL (AD + TZP5) group, DNCB-sensitized + Dermatop (Sanofi, Korea) 0.25% (AD + Dermatop) group. Dermatop was used as a positive control treatment. For the first induction of AD in the BALB/c mice, the backs of the mice were shaved and challenged with 200 μL of 1% 2,4-dinitrochlorobenzene(DNCB) in acetone/olive oil (3:1) one time (day−4). After 4 days from the induction, 0.5% DNCB was painted onto the backs of the mice every two days (day 2, 4, 6, 8, 10, 12, 14, 16 and 18). Concentrations of 200 μg/mL TZP3 or TZP5 in 20 μL of PBS were applied to the dorsal skin once daily for 18 days.
Blood was collected from each experimental group via cardiac puncture and was centrifuged at 3000 rpm and 4 °C for 20 min to obtain the serum. The levels of IgE, IgG2a were measured with an enzyme-linked immunosorbent assay kit (Bethyl Laboratories, Montgomery, TX, USA), following the manufacturer’s instructions.

HaCaT cells = test: Cytotoxicity, MTT assay; assay type: cell-based; details: 24 h, maximum tested concentration (20 µg)
Description: page 6: Figure S2. Effect of TZP3 and TZP5 on β-hexosaminidase release in RBL-2H3 cells Cytotoxicity evaluation of TZP3 and TZP5 on HaCaT cells Figure S3: Cytotoxicity evaluation of TZP3 […] and TZP5 (b) on HaCaT cells. TZP3 and TZP5 were treated with HaCaT cells in various concentrations for 24 h followed by MTT assay, and absorbance was measured. Cell viability was calculated as the relative absorbance. […]

[2] = tested on: Multidrug-resistant Pseudomonas aeruginosa (MDRPA) (CCARM 2095); test: Chequerboard assay (synergy with clinically used antibiotics); assay type: cell-based; details: for FICB: [B]/MICB; for FICI (fractional inhibitory concentration index): MDRPA CCARM 2095; for [B] (MIC of triazine polymer in combination): unit not given
Description: Briefly, 2-fold serial dilutions of each antibiotic and each polymer were prepared and added in a 1:1 volume ratio to the wells of a 96-well plate. An equal volume of bacterial solution (100 μL) at ∼10^6 CFU/mL was then seeded into each well. The plates were incubated in a shaking incubator at 37 °C and 200 rpm and read after 22 h. Bacterial growth was assessed visually or spectrophotometrically via OD600 readings taken by a microplate ELISA reader (Molecular Devices, Sunnyvale, CA, USA). The fractional inhibitory concentration index (FICI) for each drug combination was calculated using the following equation: FICI = FICA + FICB = [A]/MICA + [B]/MICB, where MICA and MICB are the MIC of antibiotic and triazine based monomer (TZP3 or TZP5), respectively, while [A] and [B] are the MIC of antibiotic and triazine based monomer (TZP3 or TZP5) in combination, respectively. FICI of ≤ 0.5 was interpreted as synergy, 0.5 < FICI ≤ 1.0 as additive, 1.0 < FICI ≤ 4.0 as indifferent, and a FICI > 4.0 as antagonism.

[3] = tested on: Multidrug-resistant Pseudomonas aeruginosa (MDRPA) CCARM 2109; assay type: cell-based; details: broth microdilution, 37 °C, 18–22 h
Description: (§1) The bacterial strains employed in the experiment were Escherichia coli (KCTC 1682), Pseudomonas aeruginosa (KCTC 1637), Bacillus subtilis (KCTC 3068), Staphylococcus aureus (KCTC 1621), three methicillin-resistant Staphylococcus aureus (CCARM 3089, 3090 and 3095), two multidrug-resistant Pseudomonas aeruginosa (CCARM 2095 and 2109) and vancomycin-resistant Enterococcus faecium (ATCC 51559). The antimicrobial activities of polymers were determined by the broth microdilution method, and the procedures were used as previously reported. Briefly, bacteria grown to mid-logarithmic phase in LB broth were diluted to 2 × 10^6 CFU/mL in 1% peptone and added to serial two-fold dilutions of different polymers ranging from 1 to 64 μg/mL. The plates were incubated in a shaking incubator at 37 °C for 18–22 h. The minimum inhibitory concentration (MIC) was determined by confirming the absence of bacterial growth both visually and spectrophotometrically by OD600 readings taken by a microplate ELISA reader (Molecular Devices, Sunnyvale, CA, USA). All measurements were performed three times.

[4] = tested on: Multidrug-resistant Pseudomonas aeruginosa (MDRPA) CCARM 2095; assay type: cell-based; details: broth microdilution, 37 °C, 18–22 h
Description: as §1

[5] = tested on: Methicillin-resistant Staphylococcus aureus (MRSA) CCARM 3095; assay type: cell-based; details: broth microdilution, 37 °C, 18–22 h
Description: as §1

[6] = tested on: Methicillin-resistant Staphylococcus aureus (MRSA) CCARM 3089; assay type: cell-based; details: broth microdilution, 37 °C, 18–22 h
Description: as §1

[7] = in combination with chloramphenicol
[8] = in combination with ciprofloxacin
[9] = combination with chloramphenicol

With `NCCCN(CCCN)c1nc(Cl)nc(NCCNc2nc(NCCNc3nc(N)nc(NCCC(c4ccccc4)c4ccccc4)n3)nc(N(CCCN)CCCN)n2)n1` [TZP5] the “serum level of total IgE” value [1] was “significantly reduced”, the “serum level of total IgG2a” value [1] was “significantly reduced” and the “cytotoxicity in HaCaT cells” value (HaCaT cells) was “didn’t show significant cytotoxicity”. The FICB [2, 7] was 0.25, the FICB [2, 8] was 0.25 and the FICB ([2]; in combination with oxacillin) was 1.0. For the same compound, the Interaction [2, 9] was “synergy (FICI of ≤ 0.5 was interpreted as synergy)”, the “FICI (fractional inhibitory concentration index)” value [2, 9] was 0.281 and the Interaction ([2]; combination with ciprofloxacin) was “synergy (FICI of ≤ 0.5 was interpreted as synergy)”. For the same compound, the “FICI (fractional inhibitory concentration index)” value ([2]; combination with ciprofloxacin) was 0.5, the Interaction ([2]; combination with oxacillin) was “indifferent (1.0 < FICI ≤ 4.0 as indifferent)” and the “FICI (fractional inhibitory concentration index)” value ([2]; combination with oxacillin) was 2.0. The “[B] (MIC of triazine polymer in combination)” value [2, 7] was 4, the “[B] (MIC of triazine polymer in combination)” value [2, 8] was 4 and the “[B] (MIC of triazine polymer in combination)” value ([2]; in combination with oxacillin) was 16. The “MIC MDRPA CCARM 2109” value [3] was 8 [6] µg/mL, the “MIC MDRPA CCARM 2095” value [4] was 8 [6] µg/mL and the “MIC MRSA CCARM 3095” value [5] was 4 [3] µg/mL. For the same compound, the “MIC MRSA CCARM 3089” value [6] was 4 [3] µg/mL.

In the case of `NCCCN(CCCN)c1nc(N)nc(NCCNc2nc(Cl)nc(N(Cc3ccccc3)Cc3ccccc3)n2)n1` [TZP3], the “serum level of total IgE” value [1] is reported as “significantly reduced”, the “serum level of total IgG2a” value [1] is reported as “significantly reduced” and the “cytotoxicity in HaCaT cells” value (HaCaT cells) is reported as “didn’t show significant cytotoxicity”. It also gave an FICB [2, 7] of 0.25, an FICB [2, 8] of 0.5 and an FICB ([2]; in combination with oxacillin) of 1.0. The Interaction [2, 9] was “synergy (FICI of ≤ 0.5 was interpreted as synergy)”, the “FICI (fractional inhibitory concentration index)” value [2, 9] was 0.281 and the Interaction ([2]; combination with ciprofloxacin) was “additive (0.5 < FICI ≤ 1.0 as additive)”. The “FICI (fractional inhibitory concentration index)” value ([2]; combination with ciprofloxacin) was 0.75, the Interaction ([2]; combination with oxacillin) was “indifferent (1.0 < FICI ≤ 4.0 as indifferent)” and the “FICI (fractional inhibitory concentration index)” value ([2]; combination with oxacillin) was 2.0. For the same compound, the “[B] (MIC of triazine polymer in combination)” value [2, 7] was 4, the “[B] (MIC of triazine polymer in combination)” value [2, 8] was 8 and the “[B] (MIC of triazine polymer in combination)” value ([2]; in combination with oxacillin) was 16. For the same compound, the “MIC MDRPA CCARM 2109” value [3] was 8 [13.5] µg/mL, the “MIC MDRPA CCARM 2095” value [4] was 8 [13.5] µg/mL and the “MIC MRSA CCARM 3095” value [5] was 8 [13.5] µg/mL. For the same compound, the “MIC MRSA CCARM 3089” value [6] was 8 [13.5] µg/mL.
